Experimental data reported in ChEMBL document CHEMBL6087467, “Probing the Histamine H1 Receptor Binding Site to Explore Ligand Binding Kinetics” (J Med Chem, 2025).

What was measured:
Histamine H1 receptor [1] = biological target: T1, Histamine H1 receptor (Homo sapiens, UniProt P35367); type: cell-based; conditions: hek293t
Histamine H1 receptor [2] = biological target: T1, Histamine H1 receptor; conditions: HEK293T, time 4.0 hrs
Histamine H1 receptor [3] = biological target: T1, Histamine H1 receptor; conditions: HEK293T, time 4.0 hrs; remark: listed apart in the source
Histamine H1 receptor [4] = biological target: T1, Histamine H1 receptor; experiment: biochemical; type: cell-based, HEK293T
Description: Displacement of [3H]-mepyramine from human histamine H1 receptor expressed in HEK293T cells assessed as inhibition constant incubated for 4 hrs by competitive binding assay

Histamine H1 receptor [5] = biological target: T1, Histamine H1 receptor; experiment: biochemical; type: cell-based, HEK293T; remark: listed apart in the source
Description: Displacement of [3H]-mepyramine from human histamine H1 receptor expressed in HEK293T cells assessed as dissociation constant incubated for 4 hrs by competitive binding assay

T1 sequence (P35367 whole entry): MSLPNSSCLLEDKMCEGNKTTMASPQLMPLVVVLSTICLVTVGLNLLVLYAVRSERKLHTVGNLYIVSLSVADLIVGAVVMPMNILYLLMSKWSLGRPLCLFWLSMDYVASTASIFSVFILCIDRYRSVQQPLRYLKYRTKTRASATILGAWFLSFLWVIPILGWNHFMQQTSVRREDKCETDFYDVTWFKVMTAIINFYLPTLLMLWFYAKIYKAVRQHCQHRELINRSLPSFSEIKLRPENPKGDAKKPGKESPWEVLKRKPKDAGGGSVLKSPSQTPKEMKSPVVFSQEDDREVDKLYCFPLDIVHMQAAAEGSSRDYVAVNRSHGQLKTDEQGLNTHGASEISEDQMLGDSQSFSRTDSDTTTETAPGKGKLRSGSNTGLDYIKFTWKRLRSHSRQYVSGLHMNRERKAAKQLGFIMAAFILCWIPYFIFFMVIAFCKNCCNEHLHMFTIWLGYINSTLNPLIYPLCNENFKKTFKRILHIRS

| Dissociation rate constant (koff) (Histamine H1 receptor [1]) [s⁻¹] | Ka (Histamine H1 receptor [2]) | Retention time (Histamine H1 receptor [3]) [min] | Ki (Histamine H1 receptor [4]) [nM] | Kd (Histamine H1 receptor [5]) [nM] | SMILES |
| --- | --- | --- | --- | --- | --- |
| 0.000917 | 0.62 10^6/M/min | 18 | – | – | CN1CCC(Oc2cc(/C=C/C(=O)O)ccc2Cc2ccccc2)CC1 |
| 0.00183 | 2.9 10^6/M/min | 9 | – | – | O=C(O)CCN1CCC(Oc2ccccc2Cc2ccccc2)CC1 |
| 0.000917 | 1.6 10^6/M/min | 3 | – | – | CN1CCC(Oc2c(/C=C/C(=O)O)cccc2Cc2ccccc2)CC1 |
| – | 1.9 10^6/M/min | 190 | – | – | CN(C)CC/C=C1/c2ccccc2COc2ccc(CC(=O)O)cc21 |
| 0.00283 | 1.3 10^6/M/min | 6 | – | – | CN1CCC(Oc2cc(CC(=O)O)ccc2Cc2ccccc2)CC1 |
| 0.001 | 4 10^6/M/min | 17 | – | – | O=C(O)CCCCCN1CCC(Oc2ccccc2Cc2ccccc2)CC1 |
| 0.00115 | 2.37 10^6/M/min | 15 | – | – | O=C(O)CCCCCCCN1CCC(Oc2ccccc2Cc2ccccc2)CC1 |
| 0.00035 | 3.7 10^6/M/min | 48 | – | – | c1ccc(Cc2ccccc2OC2CCN(CCCCc3nnn[nH]3)CC2)cc1 |

Continued, compound first:

| SMILES | Dissociation rate constant (koff) (Histamine H1 receptor [1]) [s⁻¹] | Ka (Histamine H1 receptor [2]) | Retention time (Histamine H1 receptor [3]) [min] | Ki (Histamine H1 receptor [4]) [nM] | Kd (Histamine H1 receptor [5]) [nM] |
| --- | --- | --- | --- | --- | --- |
| O=C(O)CCCCN1CCC(Oc2ccccc2Cc2ccccc2)CC1 | 0.00075 | 3.2 10^6/M/min | 23 | – | – |
| O=C(O)CCCN1CCC(Oc2ccccc2Cc2ccccc2)CC1 | 0.0017 | 2.9 10^6/M/min | 10 | – | – |
| O=C(O)COCCN1CCN([C@H](c2ccccc2)c2ccc(Cl)cc2)CC1 | – | 1.4 10^6/M/min | – | – | – |
| COc1ccc(Cc2ccccc2)c(OC2CCN(C)CC2)c1 | 0.0083 | 60 10^6/M/min | 2 | – | – |
| CN1CCC(Oc2ccccc2Cc2ccccc2)CC1 | – | 160 10^6/M/min | 2 | – | – |
| O=C(O)CCCCCCN1CCC(Oc2ccccc2Cc2ccccc2)CC1 | 0.00127 | 2.5 10^6/M/min | 13 | – | – |
| CN1CCC(Oc2c(CO)cccc2Cc2ccccc2)CC1 | 0.0122 | 27 10^6/M/min | 1.4 | – | – |
| CN1CCC(Oc2c(Cc3ccccc3)cccc2C(=O)O)CC1 | 0.004 | 0.5 10^6/M/min | 4.2 | – | – |
| CN1CCC(Oc2cc(C(=O)O)ccc2Cc2ccccc2)CC1 | 0.017 | 0.06 10^6/M/min | 1.2 | – | – |
| CN1CCC(Oc2cc(CO)ccc2Cc2ccccc2)CC1 | 0.00417 | 98 10^6/M/min | 4 | – | – |
| Cc1ccc(/C(=C\CN2CCCC2)c2ccccn2)cc1 [TRIPROLIDINE] | – | 36 10^6/M/min | – | – | – |
| CC(=O)Cc1cccc(Cc2ccccc2)c1OC1CCN(C)CC1 | 0.00138 | 2.08 10^6/M/min | 12.1 | 39.8 | 39.8 |
